Results taken from EP1624852B1, “SUN TANNING PRODUCTS AND PRODUCTS FOR TREATMENT OF THE SKIN BEFORE AND AFTER EXPOSURE TO THE SUN” (Gecomwert Anstalt, priority 2003, dated 2004).

Tested on: skin of the forearm
Assay: in vivo tanning test: skin colour read with Minolta CR 200 Chromameter after UVA irradiation
Set-up: species or system volunteers
Conditions: for Percentage increase WHITE (-L*) / Percentage increase RED (a*) / Percentage increase YELLOW (B*): 15 volunteers, forearm skin, UVA 10 minutes every 24 hours, irradiated untreated skin = 100%
Description: In order to evaluate the effectiveness of the group of components in question in extending the formation of a tan, an in vivo test with a cream containing tyrosine conjugated with 0.750 oleic acid was carried out in vivo on 15 volunteers over a period of 14 days. Three adjacent zones on the skin of the forearm of each volunteer were identified. The first irradiated zone was treated with an emulsion containing only a sun filter (placebo), the second with an emulsion containing both the filter and the lipophilic tyrosine, the third was not treated with any emulsion (control) . The three zones of the skin were irradiated simultaneously with UVA light for 10 minutes every 24 hours (1 hour after application of the creams) for two weeks. The skin colour was read instrumentally using the Minolta® CR 200 Chromameter instrument, a device for measuring the colour of surfaces which is capable of analysing the strength of the colouration using a Xenon lamp, subdividing it into three different parameters (corresponding to the white component (-L*), the red component (a*) and the yellow component (B*)). Each reading was made 24 hours after each exposure to UVA light, in order to minimise instantaneous pigmentation phenomena. The average percentage increase in the colour of the skin treated with lipophilic tyrosine in comparison with the portion of the skin treated with placebo was calculated, assigning a value of 100% to the strength of the colour of the irradiated skin in the absence of emulsion.
Values of the average percentage increase in the white, red and yellow parameters found are shown in the following table: Percentage increase in the 3 parameters

tyrosine conjugated with oleic acid
Percentage increase WHITE (-L*) (1st day, emulsion with filter and lipophilic tyrosine vs placebo (filter only), reading 24 hours after exposure): -70.20% | Percentage increase RED (a*) (1st day, vs placebo): 66.60% | Percentage increase RED (a*) (6th day, vs placebo): 73.16% | Percentage increase WHITE (-L*) (6th day, vs placebo): -79.00% | Percentage increase YELLOW (B*) (6th day, vs placebo): 62.26% | Percentage increase RED (a*) (Mean after 14 days, vs placebo): 73.50% | Percentage increase WHITE (-L*) (Mean after 14 days, vs placebo): -69.00% | Percentage increase YELLOW (B*) (Mean after 14 days, vs placebo): 65.00% | decrease in white with simultaneous increase in the red and yellow components over time (treated skin in comparison with skin treated with placebo): significantly greater
